Source: US9629822B2, “Flavonoid based antiviral targets” (UNIVERSITY OF CENTRAL FLORIDA RESEARCH FOUNDATION, INC., priority 2012, dated 2017)
Like-named read-outs stand apart in the source and are kept apart here.

Columns and labels:
HIV-1 BaL = test: Anti-HIV assay (luciferase, HIV-1 BaL infection); type: cell-based
Procedure, shortened: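 Cells infected with HIV-1 BaL at 2 ng/mL p24 (MOI approx 0.02) in compound presence. Infection read out by luciferase.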

[1] = TZMbI assay for cell safety (cell viability and growth, CytoTox Glo); conditions: human, TZMbI cells, read-out: % decrease in viability compared to 0.1% DMSO vehicle based on viable cell luminescence
Description: Assays were performed below in accordance with the procedures set forth in The Journal of Immunology, 2006, 176, pp. 6900-905; AIDS Research and Human Retroviruses, 2004, 20:11, pp. 1157-1665.^32,33 TZMbI assays for cell safety were performed to identify potential anti-viral compounds. TZMbI assays for cell safety were performed to identify potential anti-viral compounds per the methods.

US28 receptor = molecular target: T1, US28 receptor (Human cytomegalovirus, UniProt P69332); test: PathDetect trans Elk1 luciferase reporter gene assay in US28-transfected 293T HEK cells; type: cell-based, Human Cytomegalovirus (HCMV); conditions: for type of activity on the US28 receptor (agonist / inverse agonist / none), in words: Elk1 reporter, US28-transfected HEK cells
T1 construct: expressed in transfected cells; host or cells: HEK 293T cells, transiently transfected
T1 sequence (P69332 whole entry): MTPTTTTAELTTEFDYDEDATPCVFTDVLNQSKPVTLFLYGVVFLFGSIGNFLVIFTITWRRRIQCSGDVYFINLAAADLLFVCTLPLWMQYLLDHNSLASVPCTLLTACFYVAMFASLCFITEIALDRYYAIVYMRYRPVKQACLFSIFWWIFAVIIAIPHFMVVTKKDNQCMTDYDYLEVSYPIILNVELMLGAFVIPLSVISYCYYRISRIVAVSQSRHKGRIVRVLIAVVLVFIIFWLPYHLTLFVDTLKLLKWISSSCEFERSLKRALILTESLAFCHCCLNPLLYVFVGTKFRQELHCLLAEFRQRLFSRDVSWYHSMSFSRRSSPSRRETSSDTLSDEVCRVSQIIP
Procedure, shortened: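 HEK293T cells transiently transfected with Elk1, Luc and US28 vector (empty pcDNA3 for mock) were dosed with compounds in DMEM/1% FBS with 1% DMSO for 20-24 h at 37° C. Bright-Glo luminescence decrease was read; EC50 is halfway between maximal response and no-compound control, by non-linear regression.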

[2] = test system: mock transfected 293T HEK cells; test: PathDetect Elk1 luminescence in mock transfected (empty pcDNA3 vector) 293T HEK cells, off-target effect; type: cell-based, human; conditions: for activation at 10 µM: Homo sapiens, read-out: Effect(%) on mock cells with each drug at 10 μM
Procedure, shortened: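 HEK 293T cells were transiently transfected with PathDetect Elk1/luciferase and empty pcDNA3, then exposed to 10 μM compound in medium with 1% FBS and 1% DMSO for 20-24 h at 37 °C. BrightGlo luminescence was compared with the 1% DMSO control: % effect = 100%×(mock/DMSO) − 100%.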

[3] = Human immunodeficiency virus 1, BAL, 5 μM, Experiment 2B
[4] = Human immunodeficiency virus 1, BAL, 10 μM, Experiment 2B
[5] = Human immunodeficiency virus 1, BAL, 20 μM, Experiment 2B
[6] = Human immunodeficiency virus 1, BAL, 40 μM, Experiment 2B
[7] = Human immunodeficiency virus 1, BAL, 80 μM, Experiment 2B
[8] = EC50 (μM), 293T HEK cells transiently expressing US28, Elk1 reporter, NE = no effect when tested at 10 μM of compound
[9] = 10 μM vs 1% DMSO control, Equation 1
[10] = 10 μM, Experiment 1B, 2 ng/mL p24 HIV-1 BaL
[11] = Human immunodeficiency virus 1, BAL, 10 μM, Experiment 1B, 2 ng/mL p24 HIV-1 BaL
[12] = 293T HEK cells transiently expressing US28, Elk1 reporter, NE = no effect when tested at 10 μM of compound
[13] = Human immunodeficiency virus 1, BAL, 1.25 μM, Experiment 2B
[14] = Human immunodeficiency virus 1, BAL, 2.5 μM, Experiment 2B

Row | SMILES | RLU (relative luciferase units) (HIV-1 BaL; 5 μM, Experiment 2B) [RLU] | RLU (relative luciferase units) (HIV-1 BaL; 10 μM, Experiment 2B) [RLU] | RLU (relative luciferase units) (HIV-1 BaL; 20 μM, Experiment 2B) [RLU] | inhibition at 5 µM (HIV-1 BaL; [3]) [%] | inhibition at 10 µM (HIV-1 BaL; [4]) [%] | inhibition at 20 µM (HIV-1 BaL; [5]) [%] | cytotoxicity at 5 μM ([1]; Experiment 2A) [%] | cytotoxicity at 10 μM ([1]; Experiment 2A) [%] | cytotoxicity at 20 μM ([1]; Experiment 2A) [%] | EC50 (US28 receptor; [8]) [µM] | activation at 10 µM [2, 9] [%] | RLU (relative luciferase units) (HIV-1 BaL; [10]) [RLU] | inhibition at 10 µM (HIV-1 BaL; [11]) [%] | cytotoxicity at 10 μM ([1]; Experiment 1A) [%] | RLU (relative luciferase units) (HIV-1 BaL; 1.25 μM, Experiment 2B) [RLU] | RLU (relative luciferase units) (HIV-1 BaL; 2.5 μM, Experiment 2B) [RLU] | inhibition at 1.25 µM (HIV-1 BaL; [13]) [%] | inhibition at 2.5 µM (HIV-1 BaL; [14]) [%] | cytotoxicity at 1.25 μM ([1]; Experiment 2A) [%] | cytotoxicity at 2.5 μM ([1]; Experiment 2A) [%] | also measured
1 | COc1ccccc1-c1oc2ccccc2c(=O)c1O [Compound 9a, 3-Hydroxy-2-(2-methoxyphenyl)-4H-chromen-4-one] | 16.52 | 16.51 | 36.83 | -3.31 | -24.9 | -21.9 | -3.31 | -24.9 | -21.6 | 4.6 | -1 | – | – | – | – | – | – | – | – | – | RLU (relative luciferase units) (HIV-1 BaL; 40 μM, Experiment 2B): 65.50 RLU; RLU (relative luciferase units) (HIV-1 BaL; 80 μM, Experiment 2B): 59.24 RLU; inhibition at 40 µM (HIV-1 BaL; [6]): -25.4%; inhibition at 80 µM (HIV-1 BaL; [7]): -7.86%; cytotoxicity at 40 μM ([1]; Experiment 2A): -25.4%; cytotoxicity at 80 μM ([1]; Experiment 2A): -7.86%; type of activity on the US28 receptor (agonist / inverse agonist / none), in words (US28 receptor): inhibited US28 receptor constitutive activity; Efficacy(%) (US28 receptor; maximum intrinsic activity from dose-response curve, negative = inverse agonism): −19%; Emax (US28 receptor; read-out: Efficacy(%), maximum intrinsic activity from dose-response curve, negative = inverse agonism): -19%
2 | COc1ccc(Br)cc1-c1oc2ccccc2c(=O)c1O [Compound 9b, 2-(5-Bromo-2-methoxyphenyl)-3-hydroxy-4H-chromen-4-one] | 12.99 | 23.85 | 32.82 | -7.08 | -19 | -25.9 | -7.08 | -19 | -25.9 | > 10 | -11 | 736.7 | 21.3 | -2.1 | – | – | – | – | – | – | RLU (relative luciferase units) (HIV-1 BaL; 40 μM, Experiment 2B): 47.61 RLU; RLU (relative luciferase units) (HIV-1 BaL; 80 μM, Experiment 2B): 73.47 RLU; inhibition at 40 µM (HIV-1 BaL; [6]): -29.8%; inhibition at 80 µM (HIV-1 BaL; [7]): 13.3%; cytotoxicity at 40 μM ([1]; Experiment 2A): -29.8%; cytotoxicity at 80 μM ([1]; Experiment 2A): 13.3%; EC50 (US28 receptor; [12]): > 10 µM; type of activity on the US28 receptor (agonist / inverse agonist / none), in words (US28 receptor): did not show any activity
3 | COc1ccc(Br)cc1/C=C/C(=O)c1ccc2ccccc2c1O [Compound 8m, (E)-3-(5-bromo-2-methoxyphenyl)-1-(1-hydroxynaphthalen-2-yl)prop-2-en-1-one] | 251.02 | 170.42 | 160.21 | 9.04 | 37.7 | 49.9 | 10.7 | 38.2 | 90 | – | 35 | 437.6 | 53.3 | 20.3 | 324.10 | 283.48 | -24.3 | -9.08 | 10.3 | 17.9 | EC50 (US28 receptor; pEC50 ± SEM, 293T HEK cells transiently expressing US28, Elk1 reporter): 2.88 µM; Effect(%) on mock cells with each drug at 10 μM [2, 9]: 35%
4 | COc1ccc(Br)cc1/C=C/C(=O)c1c(O)cccc1OCc1ccccc1 [Compound 8l, (E)-1-(2-(Benzyloxy)-6-hydroxyphenyl)-3-(5-bromo-2-methoxyphenyl)prop-2-en-1-one] | 125.95 | 23.18 | 16.87 | 54.4 | 91.5 | 94.7 | 2.2 | 28.7 | 55.2 | – | – | 57.3 | 93.9 | 29.8 | 262.26 | 215.14 | -0.55 | 17.2 | -2.83 | -0.43 | IC50 (HIV-1 BaL; Human immunodeficiency virus 1, BAL, inferred from 54.36% inhibition at 5 μM): < 5 µM; EC50 (μM) (US28 receptor; [12]): Toxic; toxicity at 10 μM in HEK cells, in words ([2]; 10 μM): very toxic; Effect(%) on mock cells with each drug at 10 μM [2, 9]: Toxic
5 | COc1ccc(Br)cc1-c1cc(=O)c2c(O)cccc2o1 [Compound 12b, 2-(5-Bromo-2-methoxyphenyl)-5-hydroxy-4H-chromen-4-one] | −1.73 | 27.57 | 36.35 | -3.2 | 10.4 | 49.1 | -3.2 | 10.4 | 49.1 | > 10 | -16 | 445.1 | 52.4 | 34.9 | −7.32 | 0.82 | -8.84 | -2.4 | -8.84 | -2.4 | EC50 (US28 receptor; [12]): > 10 µM
6 | COc1ccc(Cl)cc1-c1oc2ccccc2c(=O)c1O [Compound 9h, 2-(5-chloro-2-methoxyphenyl)-3-hydroxy-4H-chromen-4-one] | 18.32 | 49.04 | 20.14 | -13.9 | 1.57 | 7.83 | -13.9 | 1.57 | 7.83 | 1.32 | 2 | 367.6 | 60.7 | 23.6 | 1.61 | 16.44 | -8.02 | -10.4 | -8.02 | -10.4 | type of activity on the US28 receptor (agonist / inverse agonist / none), in words (US28 receptor): inverse agonist; Effect(%) on mock cells with each drug at 10 μM [2, 9]: 2%
7 | COc1ccccc1-c1cc(=O)c2c(O)cccc2o1 [Compound 12a, 5-Hydroxy-2-(2-methoxyphenyl)-4H-chromen-4-one] | 56.78 | 83.62 | 88.46 | 123 | 43 | 131 | 123 | 43 | 131 | > 10 | – | 152.1 | 83.7 | 44.5 | −3.22 | 28.09 | 6.38 | 41.7 | 6.38 | 41.7 | EC50 (US28 receptor; [12]): > 10 µM; activation at 10 µM [2]: 2%
